Experimental data: patent US11225480B2, “Malic enzyme inhibitors” (SUN PHARMA ADVANCED RESEARCH COMPANY LTD, priority 2019, dated 2022)

Legend:
Format in all cases: biochemical
[1] = target: T1, human ME3 enzyme (Homo sapiens, UniProt Q16798); test: ME3 inhibition assay (diaphorase/resazurin coupled fluorescence); conditions: 10 μM compound concentration; read-out: Malic Enzyme 3 % inhibition (10 μM)
T1 sequence (Q16798 1-604): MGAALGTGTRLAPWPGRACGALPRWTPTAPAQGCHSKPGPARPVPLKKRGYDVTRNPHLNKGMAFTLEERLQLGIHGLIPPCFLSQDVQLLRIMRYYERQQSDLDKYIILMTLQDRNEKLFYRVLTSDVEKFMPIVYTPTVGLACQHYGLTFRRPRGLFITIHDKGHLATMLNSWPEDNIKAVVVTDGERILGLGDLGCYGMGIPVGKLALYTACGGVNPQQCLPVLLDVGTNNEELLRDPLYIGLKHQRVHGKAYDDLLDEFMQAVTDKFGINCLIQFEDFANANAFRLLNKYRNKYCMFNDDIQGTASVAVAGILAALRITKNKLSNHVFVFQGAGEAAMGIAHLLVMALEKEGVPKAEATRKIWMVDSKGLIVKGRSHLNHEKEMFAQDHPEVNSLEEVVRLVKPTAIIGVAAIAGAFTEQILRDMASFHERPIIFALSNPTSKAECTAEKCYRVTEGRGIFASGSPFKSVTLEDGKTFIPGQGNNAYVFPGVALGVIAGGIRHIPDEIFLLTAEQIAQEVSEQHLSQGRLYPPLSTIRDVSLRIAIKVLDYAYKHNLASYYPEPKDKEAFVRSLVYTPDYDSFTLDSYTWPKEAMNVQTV
Experimental: ME3 catalyzes the oxidative decarboxylation of malate to pyruvate with conversion of the co-factor β-NADP+ to NADPH. In the fluorescence assay, a coupled reaction is set up wherein an enzyme, Diaphorase, utilizes NADPH generated by ME3, to convert the dye resazurin to a fluorescent molecule resorufin.
The enzyme activity inhibition assay is set up in a 200 μL final reaction volume in a 96-well plate. As per the experimental design, 2 μL of the test compounds at 100× the desired concentration (10 μM) in DMSO were added to the respective wells with 178 μL of assay buffer (50 mM Tris-HCl pH 7.5, 10 mM MnCl2, 3 mM L-malate, 50 μM Resazurin and 0.025 mg/ml Diapharose). The 96-well plate was incubated on a plate shaker at room temperature for 15 minutes protected from light. The well contents were gently mixed by adding 10 μL of 20 nM human ME3 enzyme to the wells and the plate was incubated on a shaker at room temperature for 5 minutes protected from light. Suitable enzyme only and no enzyme controls were included in the experiment. The enzyme reaction was started by adding 10 μL of 1 mM D-NADP+. The reaction was gently mixed and the plate was initially left on a shaker at room temperature for ˜7 minutes protected from light. Later, the plate was incubated without shaking at room temperature for 3 hours. At the end of 3 hours, the fluorescence of the wells was measured at excitation 540 nm and emission 600 nm.

[2] = target: human ME2 enzyme (Homo sapiens, UniProt P23368); test: ME2 inhibition assay (diaphorase/resazurin coupled fluorescence); conditions: 10 μM compound concentration; read-out: Malic Enzyme 2 % inhibition (10 μM)
Experimental: (§1) ME2 catalyzes the oxidative decarboxylation of malate to pyruvate with conversion of the co-factor β-NAD+ to β-NADH. In the fluorescence assay, a coupled reaction is set up where in an enzyme, Diaphorase, utilizes NADH generated by ME2, to convert the dye resazurin to a fluorescent molecule resorufin. Resorufin has a characteristic fluorescence with excitation/emission at 540/600 nm (SLAS Discov., 2017 April 1:2472555217706649).
The enzyme activity inhibition assay is set up in a 200 μL final reaction volume in a 96-well plate. As per the experimental design, 2 μL of the compounds at 100× the desired concentration (10 μM) in DMSO were added to the respective wells with 178 μL of assay buffer (50 mM Tris-HCl pH 7.5, 10 mM MnCl2, 7 mM L-malate, 50 μM Resazurin and 0.025 mg/ml Diapharose). The 96-well plate was incubated on a plate shaker at room temperature for 15 minutes protected from light. The well contents were gently mixed by adding 10 μL of 60 nM human ME2 enzyme to the wells and the plate was incubated on a shaker at room temperature for 5 minutes protected from light. Suitable ‘enzyme only’ and ‘no enzyme’ controls were included in the experiment. The enzymatic reaction was started by adding 10 μL of 2 mM β-NAD+. The reaction was gently mixed and the plate was initially left on a shaker at room temperature for −7 minutes protected from light. Later, the plate was incubated without shaking at room temperature for 2 hours. At the end of 2 hours, the fluorescence of the wells was measured at excitation 540 nm and emission 600 nm. The % enzyme activity of the compounds is obtained by normalizing the data with enzyme only (100%) and no enzyme controls (0%) using GraphPad Prism software 7.04.

[3] = target: T2, human ME1 enzyme (Homo sapiens, UniProt P48163); test: ME1 inhibition assay (diaphorase/resazurin coupled fluorescence); conditions: 10 μM compound concentration; read-out: Malic Enzyme 1 % inhibition (10 μM)
T2 sequence (P48163 1-572): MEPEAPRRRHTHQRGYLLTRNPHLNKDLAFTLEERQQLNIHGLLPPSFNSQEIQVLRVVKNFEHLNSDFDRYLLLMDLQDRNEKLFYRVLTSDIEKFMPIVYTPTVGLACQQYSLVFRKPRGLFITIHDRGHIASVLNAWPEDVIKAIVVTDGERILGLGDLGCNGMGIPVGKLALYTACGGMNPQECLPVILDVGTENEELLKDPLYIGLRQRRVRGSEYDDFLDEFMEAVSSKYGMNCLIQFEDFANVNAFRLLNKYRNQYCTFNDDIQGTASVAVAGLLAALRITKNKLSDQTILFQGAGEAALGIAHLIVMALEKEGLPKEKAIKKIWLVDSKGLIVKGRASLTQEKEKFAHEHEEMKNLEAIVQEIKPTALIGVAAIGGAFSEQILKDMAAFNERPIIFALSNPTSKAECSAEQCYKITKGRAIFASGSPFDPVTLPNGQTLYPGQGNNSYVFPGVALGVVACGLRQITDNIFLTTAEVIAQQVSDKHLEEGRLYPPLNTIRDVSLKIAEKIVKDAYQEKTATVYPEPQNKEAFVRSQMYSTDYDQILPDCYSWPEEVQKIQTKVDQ
Experimental: as §1, with “ME1” for “ME2”, “β-NADP+” for “β-NAD+”, “β-NADPH.” for “β-NADH.”, “NADPH” for “NADH”, “ME1,” for “ME2,”
The enzyme activity inhibition assay is set up in a 200 μL final reaction volume in a 96-well plate. As per the experimental design, 2 μL of the compounds at 100× the desired concentration (10 μM) in DMSO were added to the respective wells with 178 μL of assay buffer (50 mM Tris-HCl pH 7.5, 10 mM MnCl2, 2 mM L-malate, 10 μM Resazurin and 0.01 mg/ml Diapharose). The 96-well plate was incubated on a plate shaker at room temperature for 15 minutes protected from light. The well contents were gently mixed by adding 10 μL of 20 nM human ME1 enzyme to the wells and the plate was incubated on a shaker at room temperature for 5 minutes protected from light. Suitable ‘enzyme only’ and ‘no enzyme’ controls were included in the experiment. The enzymatic reaction was started by adding 10 μL of 0.3 mM D-NADP+. The reaction was gently mixed and the plate was initially left on a shaker at room temperature for −7 minutes protected from light. Later, the plate was incubated without shaking at room temperature for 2 hours. At the end of 2 hours, the fluorescence of the wells was measured at excitation 540 nm and emission 600 nm. The % enzyme activity of the compounds is obtained by normalizing the data with enzyme only (100%) and no enzyme controls (0%) using GraphPad Prism software 7.04.

human ME2 enzyme, sequence (P23368 19-584): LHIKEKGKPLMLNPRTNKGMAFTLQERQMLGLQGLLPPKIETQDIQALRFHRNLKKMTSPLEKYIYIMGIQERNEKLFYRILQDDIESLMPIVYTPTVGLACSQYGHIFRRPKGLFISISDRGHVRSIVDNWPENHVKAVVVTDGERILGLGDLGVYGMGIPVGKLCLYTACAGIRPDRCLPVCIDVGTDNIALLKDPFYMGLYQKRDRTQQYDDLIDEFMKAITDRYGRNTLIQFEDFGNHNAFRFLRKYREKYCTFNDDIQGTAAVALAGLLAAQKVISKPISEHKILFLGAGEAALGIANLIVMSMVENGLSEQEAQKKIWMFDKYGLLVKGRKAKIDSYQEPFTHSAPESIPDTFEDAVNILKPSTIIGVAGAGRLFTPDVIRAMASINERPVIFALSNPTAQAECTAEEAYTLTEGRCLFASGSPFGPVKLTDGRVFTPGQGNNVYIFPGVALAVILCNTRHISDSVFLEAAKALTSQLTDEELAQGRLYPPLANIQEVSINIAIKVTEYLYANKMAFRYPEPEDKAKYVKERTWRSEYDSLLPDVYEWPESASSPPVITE

Row | Compound | inhibition at 10 µM [1] [%] | inhibition at 10 µM [2] [%] | inhibition at 10 µM [3] [%]
1 | O=C(C=C1c2ccccc2-c2ccccc21)N1CCN(c2ccc(O)cn2)CC1 [I.60, 2-Fluoren-9-ylidene-1-[4-(5-hydroxy-2-pyridyl)-piperazin-1-yl]ethanone] | > 90 | 70 to 89 | 70 to 89
2 | O=C(c1c[nH]c2ccc(F)cc12)N1CCN(c2ccc(O)cn2)CC1 [I.155, (5-Fluoro-1H-indol-3-yl)-[4-(5-hydroxy-pyridin-2-yl)-piperazin-1-yl]-methanone] | > 90 | > 90 | > 90
3 | O=C(CCc1ccc(F)c(F)c1)N1CCN(c2ccc(O)cn2)CC1 [I.153, 3-(3,4-Difluoro-phenyl)-1-[4-(5-hydroxy-pyridin-2-yl)-piperazin-1-yl]-propan-1-one] | > 90 | > 90 | > 90
4 | Cc1cccc(Cl)c1C(=O)N1CCN(c2ccc(O)cc2)CC1 [I.154, (2-Chloro-6-methylphenyl)-[4-(4-hydroxy-phenyl)-piperazin-1-yl]-methanone] | > 90 | > 90 | > 90
5 | N#Cc1ccc(CCC(=O)N2CCN(c3ccc(O)cn3)CC2)cc1 [I.138, 3-(4-Cyano-phenyl)-1-[4-(5-hydroxy-pyridin-2-yl)-piperazin-1-yl]-propan-1-one] | > 90 | > 90 | > 90
6 | COCCOc1ccc(CC(=O)N2CCN(c3ccc(O)cc3)CC2)cc1 [I.5, 1-[4-(4-Hydroxy-phenyl)-piperazin-1-yl]-2-[4-(2-methoxy-ethoxy)-phenyl]-ethanone] | > 90 | > 90 | > 90
7 | COC(=O)c1ccccc1CCC(=O)N1CCN(c2ccc(O)cn2)CC1 [I.142, 2-{3-[4-(5-Hydroxy-pyridin-2-yl)-piperazin-1-yl]-3-oxo-propyl}-benzoic acid methyl ester] | > 90 | > 90 | 70 to 89
8 | O=C(CSc1ccccc1Br)N1CCN(c2ccc(O)cc2)CC1 [I.151, 2-(2-bromo-phenylsulfanyl)-1-[4-(4-hydroxy-phenyl)-piperazin-1-yl]-ethanone] | > 90 | > 90 | > 90
9 | O=C(CCc1cccc(F)c1)N1CCN(c2ccc(O)cn2)CC1 [I.92, 3-(3-Fluoro-phenyl)-1-[4-(5-hydroxy-pyridin-2-yl)-piperazin-1-yl]-propan-1-one] | > 90 | > 90 | > 90
10 | O=C(C(c1ccccc1)c1ccccc1)N1CCN(c2ccc(O)cn2)CC1 [I.48, 1-[4-(5-Hydroxy-2-pyridyl)-piperazin-1-yl]-2,2-diphenyl-ethanone] | > 90 | 70 to 89 | 70 to 89
11 | O=C(N1CCN(c2ccc(O)cn2)CC1)C(O)(c1ccccc1)C1CCCCC1 (stereo not shown) [I.95, 2-cyclohexyl-2-hydroxy-1-[4-(5-hydroxy-2-pyridyl)piperazin-1-yl]-2-phenyl-ethanone] | > 90 | 70 to 89 | 70 to 89
12 | O=C(CCc1c2ccccc2cc2ccccc12)N1CCN(c2ccc(O)cc2)CC1 [I.53, 3-Anthracen-9-yl-1-[4-(4-hydroxy-phenyl)-piperazin-1-yl]-propan-1-one] | > 90 | > 90 | > 90
13 | O=C(CCc1cccc(C(F)(F)F)c1)N1CCN(c2ccc(O)cn2)CC1 [I.72, 1-[4-(5-Hydroxy-pyridin-2-yl)-piperazin-1-yl]-3-(3-trifluoro-methylphenyl)-propan-1-one] | > 90 | 70 to 89 | > 90
14 | O=C(CCc1ccc(F)cc1F)N1CCN(c2ccc(O)cn2)CC1 [I.152, 3-(2,4-Difluoro-phenyl)-1-[4-(5-hydroxy-pyridin-2-yl)-piperazin-1-yl]-propan-1-one] | > 90 | > 90 | > 90
15 | O=C(CCC1CCCCC1)N1CCN(c2ccc(O)cn2)CC1 [I.121, 3-Cyclohexyl-1-[4-(5-hydroxy-2-pyridyl)-piperazin-1-yl]propan-1-one] | > 90 | > 90 | > 90
16 | COc1cc(CC(=O)N2CCN(c3ccc(O)cc3)CC2)cc(OC)c1OC [I.3, 1-[4-(4-Hydroxy-phenyl)-piperazin-1-yl]-2-(3,4,5-trimethoxy-phenyl)-ethanone] | > 90 | – | > 90
17 | O=C(Cc1ccc(C(F)(F)F)cc1)N1CCN(c2ccc(O)cc2)CC1 [I.28, 1-[4-(4-Hydroxy-phenyl)-piperazin-1-yl]-2-(4-trifluoro-methyl-phenyl)-ethanone] | > 90 | – | > 90
